Experimental data as given in ChEMBL document CHEMBL1125506, “Fluoronaphthyridines as antibacterial agents. 6. Synthesis and structure-activity relationships of new chiral 7-(1-, 3-, 4-, and 6-methyl-2,5-diazabicyclo[2.2.1]heptan-2-yl)naphthyridine analogues of 7-[(1R,4R)-2,5- diazabicyclo[2.2.1]heptan-2-yl]-1-(1,1-dimethylethyl)-6-fluoro-1,4-dihy …” (J Med Chem, 1992).
Converted amounts (≈) assume the structure as drawn.

Key:
Klebsiella pneumoniae = assay: In vitro antibacterial activity against Klebsiella pneumoniae A9664; format: functional
Serratia marcescens = assay: In vitro antibacterial activity against Serratia marcescens A20019; format: functional
[1] = Plasma half-life after peroral administration to mice; format: ADME, organism-based; details: mouse, po
Enterobacter cloacae = assay: In vitro antibacterial activity against Enterobacter cloacae A9656; format: functional
[2] = Acute toxicity after intravenous administration to mice; format: organism-based; details: mouse, in vivo
Proteus mirabilis = assay: In vitro antibacterial activity against Proteus mirabilis A9900; format: functional
Staphylococcus aureus = assay: In vitro antibacterial activity against Staphylococcus aureus A9537; format: functional
[3] = Plasma half-life after intravenous administration to mice; format: ADME, organism-based; details: mouse
[4] = Acute toxicity after peroral administration to mice; format: organism-based; details: mouse, in vivo, po
Mus musculus [5] = assay: In vivo efficacy on systemic infections caused by Pseudomonas aeruginosa A9843 in mice after peroral administration; format: functional; details: po, read-out: PD50
[6] = Solubility (water, 22C, pH 7.2); format: physicochemical; details: read-out: S
Mus musculus [7] = assay: Area under curve measured as conc vs time after intravenous administration to mice.; format: ADME, organism-based; parameters: unit not given here; details: in vivo
[8] = Partition coefficient (logD); format: physicochemical; details: octanol/water
Escherichia coli = assay: In vitro antibacterial activity against Escherichia coli A15119; format: functional
Mus musculus [9] = assay: In vivo efficacy on systemic infections caused by Escherichia coli A15119 in mice after peroral administration; format: functional; details: po, read-out: PD50
Mus musculus [10] = assay: Area under curve measured as conc vs time after peroral administration to mice.; format: ADME, organism-based; parameters: unit not given here; details: in vivo, po
[11] = Peak concentration in blood after intravenous administration to mice; format: ADME, organism-based; parameters: route intravenous; details: mouse
Pseudomonas aeruginosa = assay: In vitro antibacterial activity against Pseudomonas aeruginosa A9843; format: functional
Mus musculus [12] = assay: In vivo efficacy on systemic infections caused by Escherichia coli A15119 in mice after intramuscular administration; format: functional; details: im, read-out: PD50
[13] = (§1) percent urinary recovery in 24 hr after intravenous administration to mice; format: ADME, organism-based; details: mouse, urine, read-out: UR
Morganella morganii = assay: In vitro antibacterial activity against Morganella morganii A15153; format: functional
[14] = Peak concentration in blood after peroral administration to mice; format: ADME, organism-based; parameters: route oral; details: mouse, po
Mus musculus [15] = assay: In vivo efficacy on systemic infections caused by Pseudomonas aeruginosa A9843 in mice after intramuscular administration; format: functional; details: im, read-out: PD50
[16] = Percent urinary recovery in 24 hr after peroral administration to mice; format: ADME, organism-based; details: mouse, urine, po; read-out: UR
Enterococcus faecalis = assay: In vitro antibacterial activity against Enterococcus faecalis A9809; format: functional
Mus musculus [17] = assay: In vivo efficacy on systemic infections caused by Staphylococcus aureus A15090 in mice after peroral administration; format: functional; details: po, read-out: PD50
Mus musculus [18] = assay: In vivo efficacy on systemic infections caused by Staphylococcus aureus A15090 in mice after intramuscular administration; format: functional; details: im, read-out: PD50
Bacteroides fragilis = assay: In vitro antibacterial activity against Bacteroides fragilis A-22,862; format: functional
Streptococcus pneumoniae = assay: In vitro antibacterial activity against Streptococcus pneumoniae A9585.; format: functional
Mus musculus [19] = assay: In vivo efficacy on systemic infections caused by Pseudomonas aeruginosa A9843 after peroarl administration in mice; format: functional; details: read-out: PD50
Mus musculus [20] = assay: In vivo efficacy on systemic infections caused by Streptococcus pneumoniae A9585 in mice after intramuscular administration; format: functional; details: im, read-out: PD50
Mus musculus [21] = assay: In vivo efficacy on systemic infections caused by Streptococcus pneumoniae A9585 in mice after peroral administration; format: functional; details: po, read-out: PD50
Mus musculus [22] = assay: as §1; format: functional, Urine

Compound | MIC (Klebsiella pneumoniae) [µg/mL] | MIC (Serratia marcescens) [µg/mL] | MIC (Enterobacter cloacae) [µg/mL] | MIC (Proteus mirabilis) [µg/mL] | MIC (Staphylococcus aureus) [µg/mL] | ED50 (Mus musculus [5]) [mg/kg] | solubility [6] [µg/mL] | logD [8] | MIC (Escherichia coli) [µg/mL] | Cmax [11] [ng/mL] | MIC (Pseudomonas aeruginosa) [µg/mL] | ED50 (Mus musculus [12]) [mg/kg] | MIC (Morganella morganii) [µg/mL] | Cmax [14] [ng/mL] | ED50 (Mus musculus [15]) [mg/kg] | dose excreted at 24 h [16] [%] | MIC (Enterococcus faecalis) [µg/mL] | ED50 (Mus musculus [17]) [mg/kg] | ED50 (Mus musculus [18]) [mg/kg] | MIC (Bacteroides fragilis) [µg/mL] | other results
CN1C[C@H]2C[C@@H]1CN2c1nc2c(cc1F)c(=O)c(C(=O)O)cn2C(C)(C)C | 0.13 (≈ 0.347 µM) | 0.25 (≈ 0.668 µM) | 0.13 (≈ 0.347 µM) | 1 (≈ 2.67 µM) | 0.13 (≈ 0.347 µM) | 10.2 | 310 (≈ 828 µM) | 0.21 | 0.25 (≈ 0.668 µM) | 14000 | 2 (≈ 5.34 µM) | 1 | 0.5 (≈ 1.34 µM) | 13000 | 4.7 | 3 | – | – | – | – | half-life [1]: 1.33 h; LD50 [2]: 188 mg/kg; half-life [3]: 1.6 h; LD50 [4]: 1000 mg/kg; AUC (Mus musculus [7]): 14; ED50 (Mus musculus [9]): 2.4 mg/kg; AUC (Mus musculus [10]): 18; dose excreted at 24 h [13]: 15%
C[C@@H]1[C@H]2C[C@H](CN2)N1c1nc2c(cc1F)c(=O)c(C(=O)O)cn2C(C)(C)C.Cl | 0.25 | 0.25 | 0.06 | 0.5 | 0.03 | 22 | 11800 | 0.17 | 0.016 | 13000 | 1 | 2.4 | 0.5 | 5000 | 12.5 | 1 | 0.5 | 13.1 | 7.5 | 1 | half-life [1]: 0.8 h; half-life [3]: 0.733 h; AUC (Mus musculus [7]): 10; ED50 (Mus musculus [9]): 12.5 mg/kg; AUC (Mus musculus [10]): 5; dose excreted at 24 h [13]: 2%; MIC (Streptococcus pneumoniae): 0.13 µg/mL
C[C@@H]1N[C@@H]2C[C@H]1N(c1nc3c(cc1F)c(=O)c(C(=O)O)cn3-c1ccc(F)cc1F)C2.Cl | 0.13 | 0.25 | 0.13 | 0.5 | 0.06 | – | 15 | -0.14 | 0.03 | – | 1 | – | 0.5 | – | 2.4 | – | 1 | 1.4 | 1 | 4 | ED50 (Mus musculus [19]): 3.1 mg/kg; ED50 (Mus musculus [20]): > 50 mg/kg; ED50 (Mus musculus [21]): > 50 mg/kg; MIC (Streptococcus pneumoniae): 1 µg/mL
Cc1c(F)c(N2C[C@H]3C[C@@H]2CN3)nc2c1c(=O)c(C(=O)O)cn2C1CC1 | 0.008 (≈ 0.0223 µM) | 0.006 (≈ 0.0167 µM) | 0.002 (≈ 0.00558 µM) | 0.03 (≈ 0.0837 µM) | 0.016 (≈ 0.0446 µM) | 2.7 | 20 (≈ 55.8 µM) | 0.48 | 0.02 (≈ 0.0558 µM) | 19000 | 0.006 (≈ 0.0167 µM) | 0.2 | 0.03 (≈ 0.0837 µM) | 9000 | – | 34 | 0.06 (≈ 0.167 µM) | 5.4 | 2.4 | 1 (≈ 2.79 µM) | half-life [1]: 1.28 h; LD50 [2]: 125 mg/kg; half-life [3]: 1.5 h; LD50 [4]: 1750 mg/kg; AUC (Mus musculus [7]): 40; ED50 (Mus musculus [9]): 0.9 mg/kg; AUC (Mus musculus [10]): 26; ED50 (Mus musculus [20]): > 25 mg/kg; dose excreted at 24 h [13]: 41%; ED50 (Mus musculus [21]): 43.5 mg/kg; MIC (Streptococcus pneumoniae): 0.06 µg/mL (≈ 0.167 µM)
CC(C)(C)n1cc(C(=O)O)c(=O)c2cc(F)c(N3C[C@H]4C[C@@H]3CN4)nc21 | 0.016 (≈ 0.0444 µM) | 0.06 (≈ 0.166 µM) | 0.016 (≈ 0.0444 µM) | 0.06 (≈ 0.166 µM) | 0.03 (≈ 0.0832 µM) | 4.7 | 80 (≈ 222 µM) | -0.41 | 0.008 (≈ 0.0222 µM) | 20000 | 0.25 (≈ 0.694 µM) | 0.5 | 0.03 (≈ 0.0832 µM) | 10000 | 1.4 | 34 | 0.13 (≈ 0.361 µM) | 1.6 | 0.9 | 0.5 (≈ 1.39 µM) | half-life [1]: 1.6 h; LD50 [2]: 303 mg/kg; half-life [3]: 1.22 h; LD50 [4]: 5000 mg/kg; ED50 (Mus musculus [20]): 18.9 mg/kg; dose excreted at 24 h [13]: 30%; ED50 (Mus musculus [21]): 28 mg/kg; MIC (Streptococcus pneumoniae): 0.13 µg/mL (≈ 0.361 µM)
O=C(O)c1cn(C2CC2)c2cc(N3CCNCC3)c(F)cc2c1=O [CIPROFLOXACIN] | 0.06 (≈ 0.181 µM) | 0.03 (≈ 0.0905 µM) | – | 0.008 (≈ 0.0241 µM) | 0.06 (≈ 0.181 µM) | 2.6 | – | – | – | 22000 | – | 0.05 | 0.008 (≈ 0.0241 µM) | 6000 | 1.3 | 30 | 0.5 (≈ 1.51 µM) | 12.5 | 3.9 | 1 (≈ 3.02 µM) | ED50 (Mus musculus [9]): 1.4 mg/kg; UR (Mus musculus [22]): 25%; ED50 (Mus musculus [20]): 28.7 mg/kg; ED50 (Mus musculus [21]): > 50 mg/kg; MIC (Streptococcus pneumoniae): 0.25 µg/mL (≈ 0.754 µM)
